Measurements: PubChem BioAssay (NCI)
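48-hour exposure; five concentrations; linearly interpolated endpoints. Definition used: TGI = concentration required for complete inhibition of growth.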

Assays:
Test in all cases: growth of human tumour cells (NCI), 48 h
786-0 renal = test system: 786-0 renal
A498 renal = test system: A498 renal
A549 NSCLC = test system: A549 NSCLC
ACHN renal = test system: ACHN renal
BT-549 breast = test system: BT-549 breast
CAKI-1 renal = test system: CAKI-1 renal
CCRF-CEM leukemia = test system: CCRF-CEM leukemia
COLO 205 colon = test system: COLO 205 colon
DU-145 prostate = test system: DU-145 prostate
EKVX NSCLC = test system: EKVX NSCLC
HCC-2998 colon = test system: HCC-2998 colon
HCT-116 colon = test system: HCT-116 colon
HCT-15 colon = test system: HCT-15 colon
HL-60(TB) leukemia = test system: HL-60(TB) leukemia
HOP-62 NSCLC = test system: HOP-62 NSCLC
HOP-92 NSCLC = test system: HOP-92 NSCLC
HS 578T breast = test system: HS 578T breast
HT29 colon = test system: HT29 colon
IGROV1 ovarian = test system: IGROV1 ovarian
K-562 leukemia = test system: K-562 leukemia
KM12 colon = test system: KM12 colon
LOX IMVI melanoma = test system: LOX IMVI melanoma
M14 melanoma = test system: M14 melanoma
MALME-3M melanoma = test system: MALME-3M melanoma
MCF7 breast = test system: MCF7 breast
MDA-MB-231 breast = test system: MDA-MB-231 breast
MDA-MB-435 = test system: MDA-MB-435
MDA-N = test system: MDA-N
MOLT-4 leukemia = test system: MOLT-4 leukemia
NCI-H226 lung = test system: NCI-H226 lung
NCI-H23 lung = test system: NCI-H23 lung
NCI-H460 lung = test system: NCI-H460 lung
NCI-H522 lung = test system: NCI-H522 lung
NCI/ADR-RES ovarian = test system: NCI/ADR-RES ovarian
OVCAR-3 ovarian = test system: OVCAR-3 ovarian
OVCAR-5 ovarian = test system: OVCAR-5 ovarian
OVCAR-8 ovarian = test system: OVCAR-8 ovarian
PC-3 prostate = test system: PC-3 prostate
RPMI-8226 leukemia = test system: RPMI-8226 leukemia
RXF 393 renal = test system: RXF 393 renal
SF-268 CNS = test system: SF-268 CNS
SF-295 CNS = test system: SF-295 CNS
SF-539 CNS = test system: SF-539 CNS
SK-MEL-2 melanoma = test system: SK-MEL-2 melanoma
SK-MEL-28 melanoma = test system: SK-MEL-28 melanoma
SK-MEL-5 melanoma = test system: SK-MEL-5 melanoma
SK-OV-3 ovarian = test system: SK-OV-3 ovarian
SN12C renal = test system: SN12C renal
SNB-19 CNS = test system: SNB-19 CNS
SNB-75 CNS = test system: SNB-75 CNS
SR leukemia = test system: SR leukemia
SW-620 colon = test system: SW-620 colon
T-47D breast = test system: T-47D breast
TK-10 renal = test system: TK-10 renal
U251 CNS = test system: U251 CNS
UACC-257 melanoma = test system: UACC-257 melanoma
UACC-62 melanoma = test system: UACC-62 melanoma
UO-31 renal = test system: UO-31 renal
OVCAR-4 ovarian = test system: OVCAR-4 ovarian

CCOC(NC(=O)CC)(C(F)(F)F)C(F)(F)F
TGI (786-0 renal): > 100 µM
TGI (A498 renal): > 100 µM
TGI (A549 NSCLC): > 100 µM
TGI (ACHN renal): > 100 µM
TGI (BT-549 breast): > 100 µM
TGI (CAKI-1 renal): > 100 µM
TGI (CCRF-CEM leukemia): > 100 µM
TGI (COLO 205 colon): > 100 µM
TGI (DU-145 prostate): > 100 µM
TGI (EKVX NSCLC): > 100 µM
TGI (HCC-2998 colon): > 100 µM
TGI (HCT-116 colon): > 100 µM
TGI (HCT-15 colon): > 100 µM
TGI (HL-60(TB) leukemia): > 100 µM
TGI (HOP-62 NSCLC): > 100 µM
TGI (HOP-92 NSCLC): > 100 µM
TGI (HS 578T breast): > 100 µM
TGI (HT29 colon): > 100 µM
TGI (IGROV1 ovarian): > 100 µM
TGI (K-562 leukemia): > 100 µM
TGI (KM12 colon): > 100 µM
TGI (LOX IMVI melanoma): > 100 µM
TGI (M14 melanoma): > 100 µM
TGI (MALME-3M melanoma): > 100 µM
TGI (MCF7 breast): > 100 µM
TGI (MDA-MB-231 breast): > 100 µM
TGI (MDA-MB-435): > 100 µM
TGI (MDA-N): > 100 µM
TGI (MOLT-4 leukemia): > 100 µM
TGI (NCI-H226 lung): > 100 µM
TGI (NCI-H23 lung): > 100 µM
TGI (NCI-H460 lung): > 100 µM
TGI (NCI-H522 lung): > 100 µM
TGI (NCI/ADR-RES ovarian): > 100 µM
TGI (OVCAR-3 ovarian): > 100 µM
TGI (OVCAR-5 ovarian): > 100 µM
TGI (OVCAR-8 ovarian): > 100 µM
TGI (PC-3 prostate): > 100 µM
TGI (RPMI-8226 leukemia): > 100 µM
TGI (RXF 393 renal): 61.2 µM
TGI (SF-268 CNS): > 100 µM
TGI (SF-295 CNS): > 100 µM
TGI (SF-539 CNS): > 100 µM
TGI (SK-MEL-2 melanoma): > 100 µM
TGI (SK-MEL-28 melanoma): > 100 µM
TGI (SK-MEL-5 melanoma): > 100 µM
TGI (SK-OV-3 ovarian): > 100 µM
TGI (SN12C renal): > 100 µM
TGI (SNB-19 CNS): > 100 µM
TGI (SNB-75 CNS): > 100 µM
TGI (SR leukemia): > 100 µM
TGI (SW-620 colon): > 100 µM
TGI (T-47D breast): > 100 µM
TGI (TK-10 renal): > 100 µM
TGI (U251 CNS): > 100 µM
TGI (UACC-257 melanoma): > 100 µM
TGI (UACC-62 melanoma): > 100 µM
TGI (UO-31 renal): > 100 µM

O=C(NCc1ccccc1)c1cc2ccccc2oc1=Nc1ccccc1F
TGI (786-0 renal): 24.1 µM
TGI (A498 renal): > 100 µM
TGI (A549 NSCLC): 88.7 µM
TGI (ACHN renal): 58.3 µM
TGI (BT-549 breast): > 100 µM
TGI (CAKI-1 renal): 27.9 µM
TGI (CCRF-CEM leukemia): > 100 µM
TGI (COLO 205 colon): 74.4 µM
TGI (DU-145 prostate): > 100 µM
TGI (EKVX NSCLC): > 100 µM
TGI (HCC-2998 colon): 61.5 µM
TGI (HCT-116 colon): > 100 µM
TGI (HCT-15 colon): > 100 µM
TGI (HL-60(TB) leukemia): > 100 µM
TGI (HOP-62 NSCLC): 39.8 µM
TGI (HOP-92 NSCLC): > 100 µM
TGI (HS 578T breast): > 100 µM
TGI (HT29 colon): > 100 µM
TGI (IGROV1 ovarian): > 100 µM
TGI (K-562 leukemia): > 100 µM
TGI (KM12 colon): > 100 µM
TGI (LOX IMVI melanoma): 37.3 µM
TGI (M14 melanoma): > 100 µM
TGI (MALME-3M melanoma): > 100 µM
TGI (MCF7 breast): > 100 µM
TGI (MDA-MB-231 breast): 47.3 µM
TGI (MDA-MB-435): > 100 µM
TGI (MDA-N): > 100 µM
TGI (MOLT-4 leukemia): > 100 µM
TGI (NCI-H226 lung): 92.2 µM
TGI (NCI-H23 lung): 57.5 µM
TGI (NCI-H460 lung): > 100 µM
TGI (NCI-H522 lung): > 100 µM
TGI (NCI/ADR-RES ovarian): > 100 µM
TGI (OVCAR-3 ovarian): > 100 µM
TGI (OVCAR-4 ovarian): 76.7 µM
TGI (OVCAR-5 ovarian): > 100 µM
TGI (OVCAR-8 ovarian): 31.2 µM
TGI (PC-3 prostate): > 100 µM
TGI (RPMI-8226 leukemia): > 100 µM
TGI (RXF 393 renal): 84.5 µM
TGI (SF-268 CNS): > 100 µM
TGI (SF-295 CNS): > 100 µM
TGI (SK-MEL-2 melanoma): > 100 µM
TGI (SK-MEL-28 melanoma): > 100 µM
TGI (SK-MEL-5 melanoma): 51.9 µM
TGI (SK-OV-3 ovarian): 47.5 µM
TGI (SN12C renal): 96.3 µM
TGI (SNB-19 CNS): > 100 µM
TGI (SNB-75 CNS): 45.5 µM
TGI (SR leukemia): > 100 µM
TGI (SW-620 colon): > 100 µM
TGI (T-47D breast): > 100 µM
TGI (TK-10 renal): 36.7 µM
TGI (U251 CNS): > 100 µM
TGI (UACC-257 melanoma): > 100 µM
TGI (UACC-62 melanoma): > 100 µM
TGI (UO-31 renal): 36.1 µM

Cc1cc(S(=O)(=O)Nc2n[nH]c(-c3ccc(Cl)cn3)n2)c(S)cc1Cl
TGI (786-0 renal): > 100 µM
TGI (A498 renal): > 100 µM
TGI (A549 NSCLC): > 100 µM
TGI (ACHN renal): > 100 µM
TGI (BT-549 breast): > 100 µM
TGI (CAKI-1 renal): > 100 µM
TGI (COLO 205 colon): > 100 µM
TGI (DU-145 prostate): > 100 µM
TGI (EKVX NSCLC): > 100 µM
TGI (HCC-2998 colon): > 100 µM
TGI (HCT-116 colon): > 100 µM
TGI (HCT-15 colon): > 100 µM
TGI (HL-60(TB) leukemia): > 100 µM
TGI (HOP-62 NSCLC): > 100 µM
TGI (HOP-92 NSCLC): > 100 µM
TGI (HS 578T breast): 87.2 µM
TGI (HT29 colon): > 100 µM
TGI (IGROV1 ovarian): > 100 µM
TGI (KM12 colon): > 100 µM
TGI (LOX IMVI melanoma): > 100 µM
TGI (M14 melanoma): > 100 µM
TGI (MALME-3M melanoma): > 100 µM
TGI (MCF7 breast): > 100 µM
TGI (MDA-MB-231 breast): > 100 µM
TGI (MDA-MB-435): > 100 µM
TGI (MDA-N): > 100 µM
TGI (MOLT-4 leukemia): > 100 µM
TGI (NCI-H226 lung): > 100 µM
TGI (NCI-H460 lung): > 100 µM
TGI (NCI-H522 lung): > 100 µM
TGI (NCI/ADR-RES ovarian): > 100 µM
TGI (OVCAR-3 ovarian): > 100 µM
TGI (OVCAR-4 ovarian): > 100 µM
TGI (OVCAR-5 ovarian): > 100 µM
TGI (OVCAR-8 ovarian): > 100 µM
TGI (PC-3 prostate): > 100 µM
TGI (RPMI-8226 leukemia): > 100 µM
TGI (RXF 393 renal): > 100 µM
TGI (SF-268 CNS): > 100 µM
TGI (SF-539 CNS): > 100 µM
TGI (SK-MEL-2 melanoma): > 100 µM
TGI (SK-MEL-28 melanoma): > 100 µM
TGI (SK-MEL-5 melanoma): > 100 µM
TGI (SK-OV-3 ovarian): > 100 µM
TGI (SN12C renal): > 100 µM
TGI (SNB-19 CNS): 92.5 µM
TGI (SNB-75 CNS): > 100 µM
TGI (SR leukemia): > 100 µM
TGI (SW-620 colon): > 100 µM
TGI (T-47D breast): > 100 µM
TGI (TK-10 renal): > 100 µM
TGI (U251 CNS): > 100 µM
TGI (UACC-257 melanoma): > 100 µM
TGI (UACC-62 melanoma): > 100 µM
TGI (UO-31 renal): 99.4 µM
